Results on seven molecules are retold here after ChEMBL document CHEMBL1147123, “Lipoxygenase inhibitory constituents of the fruits of noni (Morinda citrifolia) collected in Tahiti” (J Nat Prod, 2007).

Test [1] addresses T1, Polyunsaturated fatty acid 5-lipoxygenase (Homo sapiens, UniProt P09917).
T1 sequence (P09917 whole entry): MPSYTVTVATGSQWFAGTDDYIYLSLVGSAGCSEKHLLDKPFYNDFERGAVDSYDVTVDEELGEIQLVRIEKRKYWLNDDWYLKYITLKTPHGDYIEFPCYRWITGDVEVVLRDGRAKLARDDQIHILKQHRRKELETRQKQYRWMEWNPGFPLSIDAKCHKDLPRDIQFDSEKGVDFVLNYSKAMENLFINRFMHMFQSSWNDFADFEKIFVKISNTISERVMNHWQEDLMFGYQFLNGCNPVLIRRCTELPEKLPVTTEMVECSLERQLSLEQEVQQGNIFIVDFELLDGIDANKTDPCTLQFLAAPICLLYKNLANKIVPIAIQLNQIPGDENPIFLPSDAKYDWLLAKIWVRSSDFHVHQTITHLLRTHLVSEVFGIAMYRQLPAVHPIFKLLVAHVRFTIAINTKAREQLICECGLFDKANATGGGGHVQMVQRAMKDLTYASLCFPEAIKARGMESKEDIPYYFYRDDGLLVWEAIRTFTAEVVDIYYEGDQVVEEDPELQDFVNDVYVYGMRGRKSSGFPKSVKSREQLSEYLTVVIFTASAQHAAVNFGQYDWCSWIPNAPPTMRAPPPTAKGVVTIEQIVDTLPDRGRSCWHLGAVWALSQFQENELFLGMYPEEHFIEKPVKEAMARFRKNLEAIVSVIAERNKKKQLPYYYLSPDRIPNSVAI
The test is described as follows: Inhibition of 5LOX in human PBMC by EIA assay.

Test [2] has as its target T2, Prostaglandin G/H synthase 2 (Homo sapiens, UniProt P35354).
T2 sequence (P35354 whole entry): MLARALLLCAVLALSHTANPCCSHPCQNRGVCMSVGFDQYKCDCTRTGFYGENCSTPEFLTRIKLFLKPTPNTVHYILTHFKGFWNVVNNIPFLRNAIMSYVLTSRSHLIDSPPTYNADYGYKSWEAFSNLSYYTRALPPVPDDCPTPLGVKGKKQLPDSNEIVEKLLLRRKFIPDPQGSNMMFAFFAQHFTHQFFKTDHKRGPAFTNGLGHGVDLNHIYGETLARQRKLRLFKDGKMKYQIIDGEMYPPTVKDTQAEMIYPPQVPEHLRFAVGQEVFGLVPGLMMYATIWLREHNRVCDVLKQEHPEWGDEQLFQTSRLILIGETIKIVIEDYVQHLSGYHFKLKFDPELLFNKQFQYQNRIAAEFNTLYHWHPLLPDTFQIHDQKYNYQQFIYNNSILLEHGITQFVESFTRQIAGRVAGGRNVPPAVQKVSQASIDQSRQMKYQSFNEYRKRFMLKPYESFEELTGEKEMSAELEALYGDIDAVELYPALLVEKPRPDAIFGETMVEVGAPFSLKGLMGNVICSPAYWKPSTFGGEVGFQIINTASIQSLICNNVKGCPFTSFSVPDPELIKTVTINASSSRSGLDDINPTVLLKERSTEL
The test is described as follows: Inhibition of human recombinant COX2 expressed in insect Sf21 cells by EIA assay.

Test [3] concerns the target T3, Polyunsaturated fatty acid lipoxygenase ALOX15 (Oryctolagus cuniculus, UniProt P12530).
T3 sequence (P12530 whole entry): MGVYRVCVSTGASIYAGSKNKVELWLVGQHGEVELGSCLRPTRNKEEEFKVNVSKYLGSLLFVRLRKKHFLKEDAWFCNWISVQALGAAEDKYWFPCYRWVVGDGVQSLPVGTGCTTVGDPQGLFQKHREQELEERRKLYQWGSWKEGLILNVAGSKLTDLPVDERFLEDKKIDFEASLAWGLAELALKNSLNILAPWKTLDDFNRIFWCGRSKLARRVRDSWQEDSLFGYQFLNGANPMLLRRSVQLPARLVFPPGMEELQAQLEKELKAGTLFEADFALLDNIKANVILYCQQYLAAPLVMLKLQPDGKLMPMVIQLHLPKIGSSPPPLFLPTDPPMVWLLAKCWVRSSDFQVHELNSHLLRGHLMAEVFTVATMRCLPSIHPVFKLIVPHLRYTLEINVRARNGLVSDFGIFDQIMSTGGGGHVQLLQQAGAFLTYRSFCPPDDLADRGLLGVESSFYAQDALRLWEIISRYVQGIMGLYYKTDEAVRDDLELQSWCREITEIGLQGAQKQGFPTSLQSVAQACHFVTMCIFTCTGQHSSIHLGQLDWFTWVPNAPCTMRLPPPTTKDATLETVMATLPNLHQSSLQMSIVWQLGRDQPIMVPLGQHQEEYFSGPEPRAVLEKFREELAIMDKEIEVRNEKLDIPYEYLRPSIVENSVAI
In words: Inhibition of 15LOX in rabbit reticulocytes by spectrophotometric assay.

Turning to `COc1cc([C@@H]2OC[C@H]3[C@@H]2CO[C@H]3c2ccc(O)c(OC)c2)ccc1O` [(-)-PINORESINOL], half-maximal inhibition in test [1] (IC50) was put at 13.8 µM.
Take `COc1cc2oc(=O)ccc2cc1O` [ISOSCOPOLETIN]: the IC50 in test [1] and in test [2] was more than 100 µM each time.
For the molecule `Oc1ccc([C@@H]2OC[C@@H]3[C@H]2CO[C@H]3c2ccc(O)c(O)c2)cc1O`, the results for the IC50 in test [3], in test [1] and in test [2] were 0.52 µM, 5.9 µM and more than 100 µM, respectively.
In the case of `O=c1c(O)c(-c2ccc(O)cc2)oc2cc(O)cc(O)c12` [KAEMPFEROL], the half-inhibitory concentration (IC50) (in general, the concentration needed to halve the response being measured) in test [2] is more than 100 µM.
Consider `OC[C@@H]1[C@@H]([C@H](O)c2ccc(O)c(O)c2)CO[C@@H]1c1ccc(O)c(O)c1`, for which the IC50 in test [3] was 0.76 µM; in test [1], 9.2 µM; in test [2], 73.9 µM.
Take `O=C1O[C@H](c2ccc(O)c(O)c2)[C@H]2CO[C@H](c3ccc(O)c(O)c3)[C@@H]12`: the values for the IC50 in test [3], in test [1] and in test [2] were 0.52 µM, 5.6 µM and 90.2 µM, respectively.
`COc1cc2ccc(=O)oc2cc1O` [SCOPOLETIN]: the IC50 in test [1] and in test [2] was more than 100 µM in each case.
